Measurements: patent publication US20220367023A1, “Method for Predicting a Suitable Therapy” (National University of Singapore, priority 2019, published 2022)
Read-outs that look alike come from different tables or passages of the source.

Tested on: primary HSTCL cells from a patient
Assay: Ex vivo QPOP drug combination sensitivity, CellTiter-Glo cell viability (11 drugs at 3 doses, OACD)
Format: cell-based, human
[1] = Homo sapiens, concentration used in the ex vivo QPOP experiment, read-out: IC15
[2] = Homo sapiens, concentration used in the ex vivo QPOP experiment, read-out: IC30
[3] = output cell viability, 11 drugs at 3 doses
[4] = concentration used in the ex vivo QPOP experiment

Experimental: Tumor cells from an oncology patient sample are treated with a series of test drug combinations defined by Resolution IV Orthogonal Array Composite Design. This array of tests is used to derive coefficients for single drug and drug-drug interactions for all the drugs within the drug search set. These coefficients are used to calculate a predicted output of potential drug combinations (up to 4 drugs) from the drug search set. Patient-specific drug combinations are prioritized based on predicted output of single drug, 2-drug, 3-drug or 4-drug combinations.
In the current embodiment, primary patient sample that contains tumor cells, either from a blood sample or solid tumor biopsy, is collected. Tumor cells are isolated and seeded 2000 cells/well in Nunc™ 384-Well Clear Polystyrene Plates. In the examples used here, cell viability was performed using the CellTiter-Glo® Luminescent Cell Viability Assay following the manufacturer's instructions (Promega, Madison, Wis., USA).
Datasets for analysis by QPOP are built by ex vivo treatment of primary patient tumor cells with a series of drug combinations determined by orthogonal array composite design (OACD) to use the least number of combinations sufficient for factor screening and in-depth analyses, in concentrations that are at or below clinically approved doses (max Pk conc.), Table 1. […] In these examples here, the viability of cells exposed to the various drug combinations are the phenotypic output which is analyzed by the QPOP assay. The correlation of treatment combination (input) and viability (output) was fitted into a second-order quadratic equation. The coefficients of the second-order equation represent the correlation between the input, drug dose of the drug combination, and the output cell viability, allowing for optimizing drug combination. In the analysis, each drug combination was represented as a vector and coded dosages were used in MATLAB. The second-order quadratic equation is as follows:
where y represents the desired output, xn is the nth drug dosage, β0 is the intercept term, βn is the single-drug coefficient of the nth drug, βmn is the interaction coefficient between the mth and nth drugs, and βnn is the quadratic coefficient for the nth drug. […] The coefficients were calibrated using the data points in dose response assay of single drugs and drug combination (Table 2). To ensure the robustness and integrity of the assay, Z′ score is calculated after every QPOP analysis.

Row | Compound | IC15 [1] [nM] | IC30 [2] [nM] | Coefficient estimates of the second-order quadratic fit [3] | IC15 (Homo sapiens) [nM] | IC30 (Homo sapiens) [nM] | also measured
1 | COc1cc([C@@H]2c3cc4c(cc3[C@@H](O[C@@H]3O[C@@H]5CO[C@@H](C)O[C@H]5[C@H](O)[C@H]3O)[C@H]3COC(=O)[C@H]23)OCO4)cc(OC)c1O [Etoposide] | 283 | 565 | −3.739 | – | – | –
2 | COc1cccc2c1C(=O)c1c(O)c3c(c(O)c1C2=O)C[C@@](O)(C(=O)CO)C[C@@H]3O[C@H]1C[C@H](N)[C@H](O)[C@H](C)O1 [Doxorubucin] | 22.5 | 45 | – | – | – | –
3 | CC(C)C[C@H](NC(=O)[C@H](Cc1ccccc1)NC(=O)c1cnccn1)B(O)O [Bortezomib] | 6 | 12 | 5456 | – | – | –
4 | O=P1(NCCCl)OCCCN1CCCl (centres unmarked) [Ifosfamide] | – | – | – | 15000 | 30000 | Estimate, quadratic coefficient of the second-order quadratic fit [3]: 0.001006
5 | C[C@@H]1C[C@H]2[C@@H]3CCC4=CC(=O)C=C[C@]4(C)[C@@]3(F)[C@@H](O)C[C@]2(C)[C@@]1(O)C(=O)CO [Dexamethasone] | – | – | – | 60 | 120 | –
6 | L-asparaginase | – | – | 2.237 | – | – | IC15 [4]: 0.3 IU/ml; IC30 [4]: 0.6 IU/ml; Estimate, single-drug coefficient of the second-order quadratic fit [3]: −1.282
7 | N.N.[Cl][Pt][Cl] [Cisplatin] | – | – | −0.06756 | – | – | IC15 (concentration used in the ex vivo QPOP experiment, read-out: IC15): 1500 nM; IC30 (concentration used in the ex vivo QPOP experiment, read-out: IC30): 3000 nM; Estimate, single-drug coefficient of the second-order quadratic fit [3]: 0.06189
8 | CN(Cc1cnc2nc(N)nc(N)c2n1)c1ccc(C(=O)N[C@@H](CCC(=O)O)C(=O)O)cc1 [Methotrexate] | 300 | 600 | – | – | – | –
9 | Nc1ccn([C@@H]2O[C@H](CO)[C@@H](O)[C@@H]2O)c(=O)n1 [Cytarabine] | – | – | – | 233 | 466 | –
10 | Nc1ccn([C@@H]2O[C@H](CO)[C@@H](O)C2(F)F)c(=O)n1 [Gemcitabine] | 7.79 | 15.6 | – | – | – | –
11 | O=P1(N(CCCl)CCCl)NCCCO1 (centres unmarked) [Cyclophosphamide] | – | – | – | 30000 | 60000 | –
